{
  "source": "patent US12156533B2",
  "about": "“Nicotine salt formulations for aerosol devices and methods thereof” (JUUL Labs, Inc., priority 2013, dated 2024)",
  "settings": "nicotine:tartaric acid 1:2 molar ratio; in PG, VG or any mixture of PG and VG at ambient conditions",
  "from_the_text": "As used herein, weight percentage (w/w) refers to the weight of the individual component over the weight of the total formulation.",
  "data": [
    {"smiles": "CN1CCCC1c1cccnc1.O=C(O)C(O)C(O)C(=O)O", "note": "(stereo not shown) [nicotine bitartrate]", "values": [
      {"measurement": "concentration at which no solution is produced", "result": "≥ 0.5 % (w/w) nicotine"}
    ]}
  ]
}
